# Biological target: T1, human HPK1 protein (Homo sapiens, UniProt Q92918)
# T1 construct: recombinant human HPK1 protein (a.a. 1-346) was expressed in Sf9 insect cells; GST (N); purchased Signalchem M23-11G; host or cells: Sf9 insect cells (baculovirus)
# T1 sequence (Q92918 1-346): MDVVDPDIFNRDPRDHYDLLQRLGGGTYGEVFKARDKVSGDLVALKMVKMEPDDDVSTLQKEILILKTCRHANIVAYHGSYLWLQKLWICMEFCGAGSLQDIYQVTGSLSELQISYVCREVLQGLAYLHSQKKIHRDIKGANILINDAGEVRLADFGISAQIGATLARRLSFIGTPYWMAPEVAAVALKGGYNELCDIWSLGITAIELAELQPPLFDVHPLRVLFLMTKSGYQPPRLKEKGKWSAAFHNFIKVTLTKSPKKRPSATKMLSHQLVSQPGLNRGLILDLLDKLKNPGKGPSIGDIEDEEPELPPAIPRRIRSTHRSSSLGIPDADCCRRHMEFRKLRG
# Test: Human HPK1 protein TR-FRET assay
# Format: biochemical
# Conditions: 1 mM ATP
# Summary of the method: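 Read-out was TR-FRET using Eu-labeled anti-phospho-CREB (Ser133) antibody, with the 665/615 nm signal ratio normalised to DMSO-only wells and fitted by a 4-parameter logistic model for IC50. Reactions held 10 nM Sf9-expressed GST-HPK1 (a.a. 1-346), 100 nM CREBtide and 1 mM ATP, run 60 minutes at room temperature, pH 7.5.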
Structure (SMILES),IC50 (Table 20),IC50 (Table 19)
CN1CCN(Cc2ncc(NC(=O)N3CCc4ccc(Oc5c(F)cnc6[nH]c(-c7cnn(C)c7)cc56)cc4C3)cc2C(F)(F)F)CC1 [XII-1],< 500 nM,
CC[C@@H]1CN(C)CC[C@H]1Oc1ncc(NC(=O)N2CCc3ccc(Oc4ccnc5[nH]c(C)cc45)cc3[C@@H]2C)cc1C(F)(F)F [XIII-1],< 500 nM,
CCN1CCN(Cc2ccc(NC(=O)N3CCc4ccc(Oc5ncnc6[nH]c(C)cc56)cc4[C@@H]3C)cc2C(F)(F)F)CC1 [V-28],,< 500 nM
CCN1CCN(Cc2ccc(NC(=O)N3Cc4cc(Oc5ncnc6[nH]c(C)cc56)cnc4C(C)C3)cc2C(F)(F)F)CC1 (stereo not shown) [VII-18],,< 500 nM
CN1CCN(Cc2ccc(NC(=O)N3CCc4ccc(Oc5ccnc6[nH]c(C7(O)CC7)cc56)cc4C3)cc2C(F)(F)F)CC1 [XVIII-10],< 500 nM,
CN1CCN(Cc2ccc(NC(=O)N3CCc4ccc(Oc5c(F)cnc6[nH]c(-c7cn[nH]c7)cc56)cc4C3)cc2C(F)(F)F)CC1 [XII-9],< 500 nM,
CC[C@@H]1CN(C(=O)Nc2cnc(OC3CCN(C)CC3)c(C(F)(F)F)c2)Cc2cc(Oc3ccnc4[nH]c(CCOC)cc34)cnc21 [XIV-34],< 500 nM,
CCN1CCN(Cc2ccc(NC(=O)N3CCc4cnc(Nc5ccnc6[nH]ccc56)nc4C3)cc2C(F)(F)F)CC1 [XVIII-11],500 to 5000 nM,
CC[C@H]1CN(C(=O)Nc2ccc(CN3CCN(C)CC3)c(C(F)(F)F)c2)Cc2cc(Oc3ccnc4[nH]c(-c5n[nH]c(=O)o5)cc34)cnc21 [XIV-114],< 500 nM,
"CCN1CCN(Cc2ccc(NC(=O)N3Cc4cc(Oc5ccnc6[nH]c(C7CC7)nc56)cnc4C(C)C3)cc2C(F)(F)F)CC1 (single isomer, unassigned) [XIV-15]",< 500 nM,
CCN1CCN(Cc2ccc(NC(=O)N3CCc4ccc(Oc5c(Cl)cnc6[nH]ccc56)cc4C3)cc2C(F)(F)F)CC1 [III-7],,500 to 5000 nM
CC[C@H]1CN(C(=O)Nc2cnc(OC3CCN(C)CC3)c(C(F)(F)F)c2)Cc2cc(Oc3ccnc4[nH]c(CCOC)cc34)cnc21 [XIV-35],< 500 nM,
CCN1CCN(Cc2ccc(NC(=O)N3Cc4cc(Oc5ccnc6[nH]c(C)cc56)ccc4C(C(C)C)C3)cc2C(F)(F)F)CC1 (stereo not shown) [IV-36],,< 500 nM
CCN1CCN(Cc2ccc(NC(=O)N3CCc4ccc(Oc5c(C)cnc6[nH]ccc56)cc4C3)cc2C(F)(F)F)CC1 [III-6],,500 to 5000 nM
CC[C@H]1CN(C(=O)Nc2ccc(CN3CCN(C)CC3)c(C(F)(F)F)c2)Cc2cc(Oc3ccnc4[nH]c(-c5noc(C)n5)cc34)cnc21 [XIV-133],< 500 nM,
CC[C@@H]1CN(C(=O)Nc2cnc(O[C@@H]3CCN[C@H](C)C3)c(C(F)(F)F)c2)Cc2cc(Oc3ccnc4[nH]c(C)cc34)cnc21 [XIV-69],< 500 nM,
"CCN1CCN(Cc2ccc(NC(=O)N3Cc4cc(Oc5cc(N)ncc5F)cnc4C(C)C3)cc2C(F)(F)F)CC1 (single isomer, unassigned) [XIV-18]",5000 to 10000 nM,
CCC1CN(C(=O)Nc2ccc(CN3CCN(CC)CC3)c(C(F)(F)F)c2)Cc2cc(Oc3ccnc4[nH]c(-c5cnn(C)c5)cc34)cnc21 (stereo not shown) [XIV-54],< 500 nM,
CC[C@H]1CN(C(=O)Nc2ccc(CN3CCNCC3)c(C(F)(F)F)c2)Cc2cc(Oc3ccnc4[nH]c(CO)cc34)ccc21 [XV-5],< 500 nM,
CC[C@@H]1CN(C(=O)Nc2ccc(CN3CCN(CC)CC3)c(C(F)(F)F)c2)Cc2cc(Oc3ccnc4[nH]c(C5CC5)cc34)cnc21 [XIV-23],< 500 nM,
CCC1CN(C(=O)Nc2ccc(CN3CCN(CC)CC3)c(C(F)(F)F)c2)Cc2cc(Oc3ccnc4[nH]ccc34)ccc21 (stereo not shown) [IV-21],,< 500 nM
CCN1CCN(Cc2ccc(NC(=O)N3CCc4ccc(Oc5cc(C)nc6[nH]ccc56)cc4C3)cc2C(F)(F)F)CC1 [III-12],,500 to 5000 nM
C[C@@H]1Cc2ccc(Oc3c(F)cnc4[nH]c(C5(O)CC5)cc34)cc2CN1C(=O)Nc1cnc(CN2CCN(C)CC2)c(C(F)(F)F)c1 [XVI-8],< 500 nM,
Cc1cc2c(Oc3ccc4c(c3)[C@H](C)N(C(=O)Nc3cnc(OC5CCNCC5)c(C(F)(F)F)c3)CC4)ccnc2[nH]1 [VI-1],,< 500 nM
C[C@@H]1Cc2ccc(Oc3ccnc4[nH]c(C(=O)N(C)C)cc34)cc2CN1C(=O)Nc1cnc(CN2CCN(C)CC2)c(C(F)(F)F)c1 [XVI-10],< 500 nM,
CCN1CCN(Cc2ccc(NC(=O)N3CCc4ccc(Oc5ccnc(NC)c5)cc4C3)cc2C(F)(F)F)CC1 [II-13],,< 500 nM
CCN1CCN(Cc2ccc(NC(=O)N3CCc4ccc(Oc5cc(NC(=O)C6CC6)ncc5F)cc4[C@@H]3C)cc2C(F)(F)F)CC1 [XIII-15],< 500 nM,
CCN1CCN(Cc2ccc(NC(=O)N3CCc4ccc(Oc5cc(NC(=O)OC)ncc5F)cc4[C@@H]3C)cc2C(F)(F)F)CC1 [XIII-13],< 500 nM,

Structure (SMILES),IC50 (Table 20),IC50 (Table 19)
CCN1CCN(Cc2ccc(NC(=O)N3CCc4ccc(Oc5ccnc6[nH]c(C)cc56)cc4[C@@H]3C)cc2C(F)(F)F)CC1 [V-29],,< 500 nM
C[C@H]1c2cc(Oc3ccnc4[nH]c(CO)cc34)ccc2CCN1C(=O)Nc1ccc(CN2CCNCC2)c(C(F)(F)F)c1 [XIII-8],< 500 nM,
"CCN1CCN(Cc2ccc(NC(=O)N3CCc4cc(F)c(Oc5ccnc6[nH]c(C)cc56)cc4C3C)cc2C(F)(F)F)CC1 (single isomer, unassigned) [IV-25]",,< 500 nM
CCN1CCN(Cc2ccc(NC(=O)N3CCc4cc(F)c(Oc5ncnn6cccc56)cc4C3C)cc2C(F)(F)F)CC1 (stereo not shown) [IV-33],,< 500 nM
CN1CCC(Oc2ncc(NC(=O)N3CCc4ccc(Oc5c(F)cnc6[nH]c(-c7cnn(C)c7)cc56)cc4C3)cc2C(F)(F)F)CC1 [XII-13],< 500 nM,
CCN1CCN(Cc2ccc(NC(=O)N3Cc4cc(Oc5ccnc6[nH]c(C)cc56)ccc4C(C)C3)cc2C(F)(F)F)CC1 (stereo not shown) [IV-17],,< 500 nM
CC[C@@H]1CN(C(=O)Nc2ccc(CN3CCN(C)CC3)c(C(F)F)c2)Cc2cc(Oc3ccnc4[nH]c(C#N)cc34)ccc21 [XV-18],< 500 nM,
CC[C@H]1CN(C(=O)Nc2ccc(CN3CCN(CC(F)(F)F)CC3)c(C(F)(F)F)c2)Cc2cc(Oc3ccnc4[nH]c(C(=O)N(C)C)cc34)cnc21 [XIV-140],> 10000 nM,
CCC1CN(C(=O)Nc2ccc(CN3CCN(CC)CC3)c(C(F)(F)F)c2)Cc2cc(Oc3ccnc4[nH]ccc34)ccc21 (stereo not shown) [IV-22],,< 500 nM
CN1CCN(Cc2ccc(NC(=O)N3CCc4cc(F)c(Nc5c(F)cnc6[nH]c(-c7cnn(C)c7)cc56)cc4C3)cc2C(F)(F)F)CC1 [XVII-3],< 500 nM,
C[C@H]1c2cc(Oc3ccnc4[nH]ccc34)ccc2CCN1C(=O)Nc1ccc(CN2CCNCC2)c(C(F)(F)F)c1 [V-1],,< 500 nM
CCN1CCN(Cc2ccc(NC(=O)N3CCc4ccc(Oc5ccnc6c5CCC(=O)N6)cc4C3)cc2C(F)(F)F)CC1 [II-11],,< 500 nM
C[C@H]1c2cc(Oc3ccnc4[nH]c(CO)cc34)ccc2CCN1C(=O)Nc1ccc(CN2CCN(C)CC2)c(C(F)F)c1 [XIII-9],< 500 nM,
CC[C@H]1CN(C(=O)Nc2ccc(CN3CCN(C)CC3)c(C(F)(F)F)c2)Cc2cc(Oc3ccnc4[nH]c(C5(O)COC5)cc34)cnc21 [XIV-51],< 500 nM,
"CCN1CCN(Cc2ccc(NC(=O)N3Cc4cc(Oc5ccnc6[nH]c(=O)[nH]c56)cnc4C(C)C3)cc2C(F)(F)F)CC1 (single isomer, unassigned) [XIV-12]",< 500 nM,
"Cc1cc2c(Oc3cnc4c(c3)CN(C(=O)Nc3cnc(OC5CCN(C)CC5)c(C(F)(F)F)c3)CC4C)ccnc2[nH]1 (single isomer, unassigned) [VII-7]",,< 500 nM
Cc1cc2c(Oc3ccc4c(c3)CN(C(=O)Nc3cnc(OC5CCN(C)CC5O)c(C(F)(F)F)c3)CC4C)ccnc2[nH]1 (stereo not shown) [IV-41],,< 500 nM
CCC1CN(C(=O)Nc2ccc(CN3CCN(CC)CC3)c(C(F)(F)F)c2)Cc2cc(Oc3cc(NC(=O)c4cnn(C)c4)ncc3F)cnc21 (stereo not shown) [XIV-92],< 500 nM,
Cc1cc2c(Oc3cnc4c(c3)CN(C(=O)Nc3ccc(CN5CCN(C)CC5)c(C(F)(F)F)c3)C[C@@H]4C)ccnc2[nH]1 [XIV-90],< 500 nM,
C[C@H]1CN(C(=O)Nc2ccc(CN3CCN(C)CC3)c(C(F)(F)F)c2)Cc2cc(Oc3ccnc4[nH]c(CO)cc34)cnc21 [XIV-78],< 500 nM,
CC[C@@H]1CN(C(=O)Nc2ccc(CN3CCN(CC)CC3)c(C(F)(F)F)c2)Cc2cc(Oc3ccnc4[nH]c(C5(O)CC5)cc34)cnc21 [XIV-76],< 500 nM,
"CCN1CCN(Cc2ccc(NC(=O)C3CCc4ncc(Oc5ccnc6[nH]ccc56)cc4C3)cc2C(F)(F)F)CC1 (stereo not shown) [compound 24, 3-((1H-Pyrrolo[2,3-b]pyridin-4-yl)oxy)-N-(4-((4-ethylpiperazin-1-yl)methyl)-3-(trifluoromethyl)phenyl)-5,6,7,8-tetrahydroquinoline-6-carboxamide]",< 500 nM,
CC[C@@H]1CN(C(=O)Nc2ccc(CN3CCN(CCO)CC3)c(C(F)F)c2)Cc2cc(Oc3ccnc4[nH]c(C#N)cc34)ccc21 [XV-20],< 500 nM,
Cc1cc2c(Oc3ccc4c(c3)[C@H](C)N(C(=O)Nc3cnc(OC5CCN(CCO)CC5)c(C(F)(F)F)c3)CC4)ccnc2[nH]1 [VI-18],,< 500 nM
CC[C@H]1CN(C(=O)Nc2ccc(CN3CCN(C)CC3)c(C(F)(F)F)c2)Cc2cc(Oc3ccnc4[nH]c(C(=O)N(C)CCCO)cc34)cnc21 [XIV-111],< 500 nM,
CC[C@@H]1CN(C(=O)Nc2ccc(CN3CCNCC3)c(C(F)(F)F)c2)Cc2cc(Oc3ccnc4[nH]c(C5(O)COC5)cc34)ccc21 [XV-10],< 500 nM,
Cc1cc2c(Oc3cnc4c(c3)CN(C(=O)Nc3cnc(OC5CCN(C)CC5)c(C(F)(F)F)c3)CC4C)ccnc2[nH]1 (stereo not shown) [VII-6],,< 500 nM
